Laboratory results published in patent publication US20260158009A1 (GENZYME CORPORATION, priority 2023, published 2026).

Experiments:
[1] = biological target: T1, hRIPK1 (aa 1-375) fusion protein (Homo sapiens, UniProt Q13546); experiment: ADP-Glo kinase assay: catalytic activity of RIPK1 (autophosphorylation, conversion of ATP to ADP); type: biochemical
T1 construct: hRIPK1 (aa 1-375) fusion protein
T1 sequence (Q13546 1-375): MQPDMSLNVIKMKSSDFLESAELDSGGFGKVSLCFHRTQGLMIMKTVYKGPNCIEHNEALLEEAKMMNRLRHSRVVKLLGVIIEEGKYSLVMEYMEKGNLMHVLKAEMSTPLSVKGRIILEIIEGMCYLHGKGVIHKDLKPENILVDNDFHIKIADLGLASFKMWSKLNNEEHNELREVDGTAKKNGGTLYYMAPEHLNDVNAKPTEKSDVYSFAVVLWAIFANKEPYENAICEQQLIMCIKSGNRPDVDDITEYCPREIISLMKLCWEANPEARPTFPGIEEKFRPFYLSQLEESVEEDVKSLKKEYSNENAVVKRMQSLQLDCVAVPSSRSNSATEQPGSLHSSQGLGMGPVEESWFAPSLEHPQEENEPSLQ
How it was run: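 hRIPK1 (aa 1-375) fusion protein (3.6 μg/ml final) was preincubated 30 min at rt with compound (33300-1.69 nM, 1% DMSO), then 50 μM ATP was added for 240 min at rt. ADP from autophosphorylation was measured by ADP-Glo luminescence and curves fitted by nonlinear regression.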

U937 cells = experiment: Cellular assay in U937 cells: activity of RIPK1 inhibitors on TNFα/zVAD.fmk-induced cell death (necroptosis), CellTiter 96 AQueous (MTS) readout; type: cell-based; conditions: Homo sapiens, U-937
How it was run: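 Necroptosis was measured by viable-cell MTS reduction (4 h, absorbance 490 nm) after overnight (18–24 h) 37° C culture. Cell suspensions of U937 cells carried TNFα (100 ng/ml) plus zVAD.fmk (50 μM) before compound was added. A 10-point curve (10 μM–0.26 nM or 1 μM–0.07 nM) was run in duplicate, normalised to the control lacking TNFα/zVAD.fmk.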

Compound	IC50 [1]	IC50 (U937 cells)
O=C([C@H]1CC[C@H](Cn2cnc3cc(F)ccc32)CC1)N1OCC[C@H]1c1cc(F)cc(F)c1 [compound 49, trans-((S)-3-(3,5-difluorophenyl)isoxazolidin-2-yl)(4-((5-fluoro-1H-benzo[d]imidazol-1-yl)methyl)cyclohexyl)methanone]	21 nM	8 nM
Cc1ccc(CC23CCC(C(=O)N4OCC[C@H]4c4cc(F)cc(C#N)c4)(CC2)C3)cc1C(N)=O [compound 270, 5-[[4-[(3S)-3-(3-cyano-5-fluoro-phenyl)isoxazolidine-2-carbonyl]norbornan-1-yl]methyl]-2-methyl-benzamide]	20 nM	50 nM
N#Cc1cc(F)cc([C@@H]2CCON2C(=O)[C@H]2CC[C@H](Cc3ccc(C4(O)COC4)cc3)CC2)c1 [compound 169, trans-3-fluoro-5-[(3S)-2-[4-[[4-(3-hydroxyoxetan-3-yl)phenyl]methyl]cyclohexanecarbonyl]isoxazolidin-3-yl]benzonitrile]	19 nM	44 nM
N#Cc1cncc([C@@H]2CCON2C(=O)[C@H]2CC[C@H](Cc3ccc(F)c(C(N)=O)c3)CC2)c1 [compound 194, trans-5-[[4-[(3S)-3-(5-cyano-3-pyridyl)isoxazolidine-2-carbonyl]cyclohexyl]methyl]-2-fluoro-benzamide]	21 nM	10 nM
Cn1ncc2ccc(C[C@H]3CC[C@H](C(=O)N4OCC[C@H]4c4cc(F)cc(C#N)c4)CC3)cc21 [compound 294, trans-3-fluoro-5-[(3S)-2-[4-[(1-methylindazol-6-yl)methyl]cyclohexanecarbonyl]isoxazolidin-3-yl]benzonitrile]	4 nM	1 nM
N#Cc1cncc(C[C@H]2CC[C@H](C(=O)N3OCC[C@H]3c3cc(F)cc(C#N)c3)CC2)c1 [compound 141, trans-5-[[4-[(3S)-3-(3-cyano-5-fluoro-phenyl)isoxazolidine-2-carbonyl]cyclohexyl]methyl]pyridine-3-carbonitrile]	13 nM	17 nM
N#Cc1ccc2cnn(C[C@H]3CC[C@H](C(=O)N4OCC[C@H]4c4ccccn4)CC3)c2c1 [compound 215, trans-1-[[4-[(3S)-3-(2-pyridyl)isoxazolidine-2-carbonyl]cyclohexyl]methyl]indazole-6-carbonitrile]	20 nM	7 nM
COc1cnc2ccn(C[C@H]3CC[C@H](C(=O)N4OCC[C@H]4c4cc(F)cc(C#N)c4)CC3)c2c1 [compound 128, trans-3-fluoro-5-[(3S)-2-[4-[(6-methoxypyrrolo[3,2-b]pyridin-1-yl)methyl]cyclohexanecarbonyl]isoxazolidin-3-yl]benzonitrile]	22 nM	4 nM
Cc1nc([C@@H]2CCON2C(=O)[C@H]2CC[C@H](Cn3ncc4ncc(C#N)cc43)CC2)cs1 [compound 199, trans-1-[[4-[(3S)-3-(2-methylthiazol-4-yl)isoxazolidine-2-carbonyl]cyclohexyl]methyl]pyrazolo[4,3-b]pyridine-6-carbonitrile]	18 nM	51 nM
NC(=O)c1ccc2ccn(C[C@H]3CC[C@H](C(=O)N4OCC[C@H]4c4cc(F)cc(F)c4)CC3)c2c1 [compound 105, trans-1-((4-((S)-3-(3,5-difluorophenyl)isoxazolidine-2-carbonyl)cyclohexyl)methyl)-1H-indole-6-carboxamide]	15 nM	4 nM
Cc1ccc([C@@H]2CCON2C(=O)[C@]2(C)CC[C@@H](Cc3cc(C)c4nc(C)nn4c3)CC2)cn1 [compound 400, trans-[4-[(2,8-dimethyl-[1,2,4]triazolo[1,5-a]pyridin-6-yl)methyl]-1-methylcyclohexyl]-[(3S)-(6-methylpyridin-3-yl)-1,2-oxazolidin-2-yl]methanone]	19 nM	9 nM
Cc1ncc(F)cc1C[C@H]1CC[C@H](C(=O)N2OCC[C@H]2c2ccc(F)cc2)CC1 [compound 179, trans-[4-[(5-fluoro-2-methyl-3-pyridyl)methyl]cyclohexyl]-[(3S)-3-(4-fluorophenyl)isoxazolidin-2-yl]methanone]	32 nM	5 nM
N#Cc1cncc(C[C@H]2CC[C@H](C(=O)N3OCC[C@H]3c3cnccn3)CC2)c1 [compound 140, trans-5-[[4-[(3S)-3-pyrazin-2-ylisoxazolidine-2-carbonyl]cyclohexyl]methyl]pyridine-3-carbonitrile]	40 nM	173 nM
Cc1ccc([C@@H]2CCON2C(=O)[C@H]2CC[C@H](Cc3cc(C)c4ncnn4c3)CC2)cn1 [compound 347, trans-[(3S)-3-(6-methylpyridin-3-yl)-1,2-oxazolidin-2-yl]-[4-[(8-methyl-[1,2,4]triazolo[1,5-a]pyridin-6-yl)methyl]cyclohexyl]methanone]	46 nM	59 nM
Cc1cc([C@@H]2CCON2C(=O)[C@H]2CC[C@H](Cn3cnc4c(F)cc(C#N)cc43)CC2)co1 [compound 38, trans-4-fluoro-1-((4-((S)-3-(5-methylfuran-3-yl)isoxazolidine-2-carbonyl)cyclohexyl)methyl)-1H-benzo[d]imidazole-6-carbonitrile]	32 nM	30 nM
N#Cc1cc(F)cc([C@@H]2CCON2C(=O)[C@H]2CC[C@H](Cn3ncc4cc(C#N)ccc43)CC2)c1 [compound 53, trans-1-((4-((S)-3-(3-cyano-5-fluorophenyl)isoxazolidine-2-carbonyl)cyclohexyl)methyl)-1H-indazole-5-carbonitrile]	17 nM	4 nM
N#Cc1cc(F)cc([C@@H]2CCON2C(=O)[C@H]2CC[C@H](Cn3ccc4ncc(Cl)cc43)CC2)c1 [compound 19, trans-3-((S)-2-(4-((6-chloro-1H-pyrrolo[3,2-b]pyridin-1-yl)methyl)cyclohexane-1-carbonyl)isoxazolidin-3-yl)-5-fluorobenzonitrile]	28 nM	5 nM
N#Cc1cc(F)cc([C@@H]2CCON2C(=O)[C@H]2CC[C@H](Cn3c(=O)oc4ccccc43)CC2)c1 [compound 18, trans-3-fluoro-5-((S)-2-(4-((2-oxobenzo[d]oxazol-3(2H)-yl)methyl)cyclohexane-1-carbonyl)isoxazolidin-3-yl)benzonitrile]	19 nM	16 nM
Cc1cc([C@@H]2CCON2C(=O)[C@H]2CC[C@H](Cn3ccc4c(F)cc(C#N)cc43)CC2)co1 [compound 47, trans-4-fluoro-1-((4-((S)-3-(5-methylfuran-3-yl)isoxazolidine-2-carbonyl)cyclohexyl)methyl)-1H-indole-6-carbonitrile]	18 nM	3 nM
COc1ccc2c(ccn2C[C@H]2CC[C@H](C(=O)N3OCC[C@H]3c3cc(F)cc(C#N)c3)CC2)n1 [compound 120, trans-3-fluoro-5-[(3S)-2-[4-[(5-methoxypyrrolo[3,2-b]pyridin-1-yl)methyl]cyclohexanecarbonyl]isoxazolidin-3-yl]benzonitrile]	41 nM	6 nM
Cc1nc(C[C@H]2CC[C@H](C(=O)N3OCC[C@H]3c3cnccn3)CC2)cs1 [compound 240, trans-[4-[(2-methylthiazol-4-yl)methyl]cyclohexyl]-[(3S)-3-pyrazin-2-ylisoxazolidin-2-yl]methanone]	27 nM	52 nM
Cc1nn(C[C@H]2CC[C@H](C(=O)N3OCC[C@H]3c3cc(F)cc(C#N)c3)CC2)c2cc(F)c(C#N)cc12 [compound 69, trans-1-((4-((S)-3-(3-cyano-5-fluorophenyl)isoxazolidine-2-carbonyl)cyclohexyl)methyl)-6-fluoro-3-methyl-1H-indazole-5-carbonitrile]	22 nM	5 nM
Cc1ccc(C[C@H]2CC[C@H](C(=O)N3OCC[C@H]3c3cncc(C#N)c3)CC2)cc1C(N)=O [compound 158, trans-5-[[4-[(3S)-3-(5-cyano-3-pyridyl)isoxazolidine-2-carbonyl]cyclohexyl]methyl]-2-methyl-benzamide]	9 nM	33 nM
N#Cc1cc(F)c2cn(C[C@H]3CC[C@H](C(=O)N4OCC[C@H]4c4cc(F)cc(F)c4)CC3)nc2c1 [compound 35, trans-2-((4-((S)-3-(3,5-difluorophenyl)isoxazolidine-2-carbonyl)cyclohexyl)methyl)-4-fluoro-2H-indazole-6-carbonitrile]	41 nM	48 nM
N#Cc1cnc2ccn(C[C@H]3CC[C@H](C(=O)N4OCC[C@H]4c4cnccn4)CC3)c2c1 [compound 134, trans-1-[[4-[(3S)-3-pyrazin-2-ylisoxazolidine-2-carbonyl]cyclohexyl]methyl]pyrrolo[3,2-b]pyridine-6-carbonitrile]	27 nM	25 nM
Cc1nn(C[C@H]2CC[C@H](C(=O)N3OCC[C@H]3c3cc(F)cc(C#N)c3)CC2)c2cc(C#N)cc(F)c12 [compound 100, trans-1-((4-((S)-3-(3-cyano-5-fluorophenyl)isoxazolidine-2-carbonyl)cyclohexyl)methyl)-4-fluoro-3-methyl-1H-indazole-6-carbonitrile]	17 nM	4 nM
